Results published in ChEMBL document CHEMBL4602694, “Suppression of Drug-Resistant Non-Small-Cell Lung Cancer with Inhibitors Targeting Minichromosomal Maintenance Protein” (J Med Chem, 2020).

What was measured:
NCI-H1975 [1] = experiment: Cell cycle arrest in human NCI-H1975 cells assessed as BrdU positive cells at 140 nM incubated for 24 hrs by BrdUrd incorporation assay (reference value: 44.5 +/- 2 %); assay type: functional
[2] = biological target: T1, DNA replication licensing factor MCM4 (Homo sapiens) (UniProt P33991); experiment: Induction of ubiquitination of MCM4 in human NCI-H1975 cells incubated for 72 hrs by immunoblot analysis (reference value: 1); assay type: cell-based
T1 sequence (whole entry): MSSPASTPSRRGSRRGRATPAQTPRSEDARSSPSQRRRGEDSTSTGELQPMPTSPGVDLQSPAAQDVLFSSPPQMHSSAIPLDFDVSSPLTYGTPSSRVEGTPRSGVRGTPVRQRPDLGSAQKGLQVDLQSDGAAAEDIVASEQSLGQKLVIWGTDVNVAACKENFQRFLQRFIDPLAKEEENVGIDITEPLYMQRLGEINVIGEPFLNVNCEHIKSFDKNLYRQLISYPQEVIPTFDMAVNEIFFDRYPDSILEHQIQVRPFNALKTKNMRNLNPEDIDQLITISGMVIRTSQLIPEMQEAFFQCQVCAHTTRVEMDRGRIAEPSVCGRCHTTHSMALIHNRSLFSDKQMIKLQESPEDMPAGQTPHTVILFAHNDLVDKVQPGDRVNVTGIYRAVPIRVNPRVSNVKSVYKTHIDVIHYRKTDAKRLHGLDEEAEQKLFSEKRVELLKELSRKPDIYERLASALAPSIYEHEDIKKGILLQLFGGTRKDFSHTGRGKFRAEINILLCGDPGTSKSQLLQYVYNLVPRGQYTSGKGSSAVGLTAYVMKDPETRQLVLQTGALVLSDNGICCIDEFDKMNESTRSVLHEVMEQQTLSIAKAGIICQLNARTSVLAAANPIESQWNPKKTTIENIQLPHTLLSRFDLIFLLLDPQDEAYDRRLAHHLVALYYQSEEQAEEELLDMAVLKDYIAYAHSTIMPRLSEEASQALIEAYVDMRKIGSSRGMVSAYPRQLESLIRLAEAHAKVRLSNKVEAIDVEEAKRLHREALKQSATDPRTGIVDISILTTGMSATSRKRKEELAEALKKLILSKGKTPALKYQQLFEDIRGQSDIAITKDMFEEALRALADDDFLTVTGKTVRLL

NCI-H1975 [3] = experiment: Antiproliferative activity against human NCI-H1975 cells assessed as reduction in cell viability incubated for 72 hrs by SRB assay; assay type: functional, cell-based; settings: NCI-H1975, 72 h
[4] = biological target: DNA replication licensing factor MCM2 (Homo sapiens) (UniProt P49736); experiment: Induction of ubiquitination of MCM2 in human NCI-H1975 cells incubated for 48 hrs by immunoblot analysis (reference value: 1); assay type: cell-based
[5] = biological target: DNA replication licensing factor MCM7 (Homo sapiens) (UniProt P33993); experiment: Induction of ubiquitination of MCM7 in human NCI-H1975 cells incubated for 48 hrs by immunoblot analysis (reference value: 1); assay type: cell-based
[6] = Toxicity in athymic nude BALB/c mouse xenografted with human NCI-H1975 cells assessed as reduction in body weight at 1 or 4 mg/kg, ip administered for 4 weeks; assay type: organism-based; settings: in vivo, 672 h
[7] = Toxicity in athymic nude BALB/c mouse xenografted with human NCI-H1975 cells assessed as effect on serum blood urea nitrogen at 1 or 4 mg/kg, ip administered for 4 weeks; assay type: organism-based; settings: in vivo, 672 h
[8] = Toxicity in athymic nude BALB/c mouse xenografted with human NCI-H1975 cells assessed as effect on kidney at 1 or 4 mg/kg, ip administered for 4 weeks; assay type: organism-based; settings: in vivo, 672 h
[9] = biological target: T2, DNA replication licensing factor MCM3 (Homo sapiens) (UniProt P25205); experiment: Induction of ubiquitination of MCM3 in human NCI-H1975 cells incubated for 24 hrs by immunoblot analysis (reference value: 1); assay type: cell-based
T2 sequence (whole entry): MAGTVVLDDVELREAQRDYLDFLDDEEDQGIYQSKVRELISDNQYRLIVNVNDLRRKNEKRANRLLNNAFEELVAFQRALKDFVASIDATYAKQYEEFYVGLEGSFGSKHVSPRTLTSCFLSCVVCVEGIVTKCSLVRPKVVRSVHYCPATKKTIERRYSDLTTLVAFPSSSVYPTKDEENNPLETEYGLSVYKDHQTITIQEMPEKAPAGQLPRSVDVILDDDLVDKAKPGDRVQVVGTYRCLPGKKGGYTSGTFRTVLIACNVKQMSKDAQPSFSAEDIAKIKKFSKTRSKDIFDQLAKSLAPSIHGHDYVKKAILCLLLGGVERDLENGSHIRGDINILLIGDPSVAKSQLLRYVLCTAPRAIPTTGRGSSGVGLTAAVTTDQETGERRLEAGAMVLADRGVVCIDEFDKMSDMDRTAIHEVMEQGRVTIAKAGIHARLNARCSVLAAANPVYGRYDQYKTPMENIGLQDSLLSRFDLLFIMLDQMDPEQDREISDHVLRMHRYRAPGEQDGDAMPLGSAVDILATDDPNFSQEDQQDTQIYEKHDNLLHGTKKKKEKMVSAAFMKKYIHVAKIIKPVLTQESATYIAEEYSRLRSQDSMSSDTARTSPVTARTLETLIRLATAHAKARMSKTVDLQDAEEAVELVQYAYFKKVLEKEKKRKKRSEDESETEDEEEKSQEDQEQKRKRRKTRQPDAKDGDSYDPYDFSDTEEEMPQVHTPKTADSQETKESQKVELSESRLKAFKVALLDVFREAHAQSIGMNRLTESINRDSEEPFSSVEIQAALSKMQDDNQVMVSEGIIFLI

[10] = Selectivity index, ratio of IC50 for human bronchial epithelial cells to IC50 for human PC9IR cells; assay type: toxicity; settings: human bronchial epithelial cells versus PC9IR cells, read-out: Ratio IC50

Chain of DNA replication licensing factor MCM7 (Homo sapiens) (P33993 whole entry): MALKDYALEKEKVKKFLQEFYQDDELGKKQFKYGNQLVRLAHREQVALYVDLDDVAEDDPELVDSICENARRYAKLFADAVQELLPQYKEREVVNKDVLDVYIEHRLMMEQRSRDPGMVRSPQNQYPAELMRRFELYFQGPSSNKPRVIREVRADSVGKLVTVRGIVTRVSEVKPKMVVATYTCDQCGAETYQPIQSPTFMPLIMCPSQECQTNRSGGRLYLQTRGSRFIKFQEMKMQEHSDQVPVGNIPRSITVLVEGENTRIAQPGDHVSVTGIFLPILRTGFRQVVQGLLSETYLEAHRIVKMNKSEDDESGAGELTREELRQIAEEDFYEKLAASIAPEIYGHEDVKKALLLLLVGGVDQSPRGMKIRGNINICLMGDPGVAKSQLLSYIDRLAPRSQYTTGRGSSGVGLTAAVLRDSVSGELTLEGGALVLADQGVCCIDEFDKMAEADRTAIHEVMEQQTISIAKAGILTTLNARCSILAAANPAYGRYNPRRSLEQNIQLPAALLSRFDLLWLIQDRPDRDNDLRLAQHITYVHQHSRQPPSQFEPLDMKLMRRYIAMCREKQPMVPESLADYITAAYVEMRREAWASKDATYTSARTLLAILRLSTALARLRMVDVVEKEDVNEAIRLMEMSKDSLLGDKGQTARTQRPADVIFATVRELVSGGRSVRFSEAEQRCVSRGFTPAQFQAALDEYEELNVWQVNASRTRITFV
Chain of DNA replication licensing factor MCM2 (Homo sapiens) (P49736 whole entry): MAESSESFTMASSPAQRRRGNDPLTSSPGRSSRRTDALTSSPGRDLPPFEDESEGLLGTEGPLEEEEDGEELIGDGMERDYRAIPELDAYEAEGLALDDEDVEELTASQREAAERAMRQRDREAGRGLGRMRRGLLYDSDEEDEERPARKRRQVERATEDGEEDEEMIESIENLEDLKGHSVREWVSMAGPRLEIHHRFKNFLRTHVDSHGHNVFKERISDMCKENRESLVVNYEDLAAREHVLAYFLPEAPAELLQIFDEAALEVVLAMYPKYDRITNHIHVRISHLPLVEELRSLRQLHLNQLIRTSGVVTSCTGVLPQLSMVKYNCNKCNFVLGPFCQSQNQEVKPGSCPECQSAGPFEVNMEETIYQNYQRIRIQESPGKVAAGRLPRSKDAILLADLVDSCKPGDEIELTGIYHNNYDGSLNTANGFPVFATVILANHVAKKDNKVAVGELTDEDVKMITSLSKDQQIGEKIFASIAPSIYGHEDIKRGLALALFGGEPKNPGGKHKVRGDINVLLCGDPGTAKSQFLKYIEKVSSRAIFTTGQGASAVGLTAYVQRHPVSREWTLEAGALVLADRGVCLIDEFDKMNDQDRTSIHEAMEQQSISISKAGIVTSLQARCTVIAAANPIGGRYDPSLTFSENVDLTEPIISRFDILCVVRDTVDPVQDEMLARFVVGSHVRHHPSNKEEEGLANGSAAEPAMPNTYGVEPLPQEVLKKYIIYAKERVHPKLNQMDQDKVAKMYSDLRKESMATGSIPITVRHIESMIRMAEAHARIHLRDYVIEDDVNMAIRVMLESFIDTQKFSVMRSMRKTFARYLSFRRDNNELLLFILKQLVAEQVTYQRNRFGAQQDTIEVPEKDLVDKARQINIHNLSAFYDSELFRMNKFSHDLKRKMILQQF

Structure (SMILES): Cc1oc2c(c1C(=O)NCCCn1ccnc1)C(=O)c1ccccc1C2=O
- Activity (NCI-H1975 [1]): 27.7%
- Activity [2]: 0.7
- IC50 (NCI-H1975 [3]): 0.077 µM
- Activity [4]: 0.4
- Activity [5]: 0.5
- Activity [6]: Non-Toxic
- Activity [7]: Non-Toxic
- Activity [8]: Non-Toxic
- Activity [9]: 1.1
- selectivity ratio [10]: > 10
